Type in all cases: cell-based, human
Data set [1] has as its system HL60 cells (WT-low expressing). Description: cell growth activity, Premix WST1 (Example 2). The following applies: for Ratio of cell-growth activation defining RNA interference effect in HL60 as 1: HL60, the reference itself; for Relative growth ability (%) compared with the control: HL60, siRNA 10 nM, after 20 hours, n=3 mean, control = transfection without siRNA. As to the method:
(§1) The cells placed in a 96-well plate at a density of 2×10^4 cells/well were cultured in an RPMI medium (containing 10% by volume FBS). The cells were transfected with each of the synthesized (10 nM each) siRNAs, and after 20 hours, the cell growth activity was determined with Premix WST1 reagent (trade name, manufactured by TAKARA BIO INC.). Relative growth ability (%) compared with the growth ability of the control (cells subjected to transfection without adding an siRNA) was determined. Each experiment was carried out with n=3, and the mean was determined.
(In general: Tetrazolium dyes change colour on reduction, which living cells bring about.)

For data set [2], the system named is EoL1 cells (WT-highly expressing). Briefly: cell growth activity, Premix WST1 (Example 2). Conditions: for Relative growth ability (%) compared with the control: siRNA 10 nM, after 20 hours, n=3 mean, control = transfection without siRNA. As to the method: as §1
Data set [3] relates to MV4-11 cells (ITD mutation-highly expressing). Description: cell growth activity, Premix WST1 (Example 2). The following applies: for Relative growth ability (%) compared with the control: siRNA 10 nM, after 20 hours, n=3 mean, control = transfection without siRNA. As to the method:
as §1

A further data set relates to Flt3 mRNA. Briefly: Flt3 mRNA interference by synthesized siRNA, real-time RT-PCR (Example 1). Conditions: for inhibition percentage (%) of the relative mRNA expression level (Flt3 mRNA/GAPDH mRNA): siRNA 200 pmol, Oligofectamin, after 24 hours, vs cells transfected without siRNA. As to the method:
Each kind of cell selected from HL-60 cells [Flt3 WT (wild-type) low expressing cells; ATCC CCL-240], EoL-1 cells [Flt3 WT (wild-type) highly expressing cells; ECACC 94042252] and MV4-11 cells [Flt3/ITD highly expressing cells; ATCC CRL-9591] was cultured at 37° C. in an RPMI 1640 medium (manufactured by TAKARA BIO INC.) supplemented with 10% by volume fetal bovine serum (FBS) in the presence of 5% by volume CO2.
Then, the cells (2×10^5 cells/nil) were pre-cultured for 24 hours in a 6-well plate, then recovered, and suspended so as to give a density of 1.5×10^5 cells/ml in Opti-MEM (trade name, manufactured by Invitrogen), and the synthesized siRNA was added to the resulting suspension so as to give a final concentration of 200 pmol. Transfection was carried out using Oligofectamin (trade name, manufactured by Invitrogen) in an amount of 4 μl/reaction, according to an Invitrogen's protocol attached to Oligofectamin (trade name). As a control, the cells were subjected to similar operations without adding the siRNA. The unspecific influence of the siRNA was evaluated using an siRNA to a BCR/ABL chimera mRNA.
Confirmation of RNA interference of the target gene was carried out by determining change in mRNA level by a real-time RT-PCR method as shown below.
Using Oligofectamin (trade name, manufactured by Invitrogen), each kind of cell was transfected with the synthesized siRNA. After 24 hours, whole RNA was extracted from the resulting cells with TRIzol™ reagent (manufactured by Invitrogen), and the resulting product was treated with DNaseI (manufactured by TAKARA BIO INC.). The transfection, the extraction of the whole RNA and the treatment with DNaseI were carried out according to a manufacturer's protocol of the reagent used.
The real-time PCR method was carried out using a Real Time One Step RNA PCR Kit (trade name, manufactured by TAKARA BIO INC.), 100 ng of the resulting RNA as a template and a pair of primers (each 20 pmol), that is, an oligonucleotide having the nucleotide sequence of SEQ ID NO: 13 and an oligonucleotide having the nucleotide sequence of SEQ ID NO: 14. In the real-time RT-PCR method, change in fluorescence based on SYBER Green I (manufactured by TAKARA BIO INC.) was determined with Light Cycler (trade name, manufactured by Roche). The RNA level was standardized by similarly determining GAPDH mRNA with primers set forth in SEQ ID NOs: 15 and 16.
The PCR conditions were as follows: after incubation was carried out at 95° C. for 30 seconds, the reaction was carried out in 40 cycles each consisting of the reaction at 95° C. for 1 second, then at 60° C. for 10 seconds, and at 72° C. for 30 seconds.
The inhibition percentage (%) of the relative mRNA expression level (Flt3 mRNA/GAPDH mRNA) changed by using the synthesized siRNA, as calculated assuming that the relative mRNA expression level (Flt3 mRNA/GAPDH mRNA) of the cells only subjected to each operation of the transfection without adding the synthesized siRNA was 100%, was shown in Table 1.

Data set [4] relates to MV4-11 (ITD mutation) cells. Description: growth inhibition by siRNA3 in combination with kinase inhibitor AG1295, WST-1 (Example 4). Conditions: Homo sapiens, MV4-11, kinase inhibitor alone (control siRNA), 72 hours, n=6 mean, read-out: growth inhibition as compared with the cells transfected with the control siRNA/0 μM AG1295. As for the experimental part:
The growth inhibitory activity of treatment with a combination of the composition (synthesized siRNA3) of the present invention and a kinase inhibitor on MV4-11 (ITD mutation) cells was examined. The synthesized siRNA3 used was the same as in item (1) of Example 1 above. As the kinase inhibitor, AG1295 (manufactured by CALBIOCHEM) having high specificity to ITD mutation cells was used.
In the same manner as in item (2) of Example 1 above, MV4-11 cells were cultured at 37° C. for 24 hours in a medium obtained by supplementing 10% by volume fetal bovine serum (FBS) to an RPMI 1640 medium (manufactured by TAKARA BIO INC.) (referred to hereinafter as a culture medium) in the presence of 5% by volume CO2. Then, the MV4-11 cells (1×10^6 cells/ml) suspended in Opti-MEM (trade name, manufactured by Invitrogen) were transferred to a cuvette (manufactured by BIO RAD; gap of 4 mm), and siRNA3 was added to the cuvette so as to give a final concentration of 1.2 μM. Then, the cuvette was set in Gene Pulser Xcell (trade name, manufactured by BIO RAD) and thereafter pulsed with electric field intensity of 650 V/cm for 25 msec. Then, the suspension of the cells in the cuvette was added to, and suspended in, a 4-fold excess volume of the culture medium and dispensed onto a 96-well plate so as to give an amount of 100 μl/well. […]
4 mM AG1295 (dissolved in DMSO) was diluted with the above-mentioned culture medium to prepare AG1295 dilutions at a concentration of 10 μM, 6 μM and 0 μM (0.25% by volume DMSO) and added so as to give an amount of 100 μl/well to the 96-well plate prepared in step (2) above and cultured at 37° C. in the presence of 5% by volume CO2. Seventy-two hours after the culture was initiated, the growth activity of the cells was determined using Premix WST-1 reagent (trade name, manufactured by TAKARA BIO INC.) according to a manufacturer's protocol. Each experiment was carried out with n=6, and the mean was determined. The relative growth ratio (%) to the growth ability of the cells transfected with the control siRNA/0 μM AG1295 was determined. […]

Setting [5] is: EoL1 (WT-highly expressing), the reference itself.
Setting [6] is: MV4-11 (ITD mutation-highly expressing).

Marks after values point to notes of the source that are not given here.

Data on four compounds can be found in patent US8138159B2, “Composition for inhibiting function of human Flt3” (Takara Bio Inc., priority 2003, dated 2012).

Consider “siRNA1: siRNA to ATP-binding site region of Flt3 (target SEQ ID NO: 1); sense SEQ ID NO: 2, antisense SEQ ID NO: 3 (sense GGUACUAGGAUCAGGUGCUTT; antisense AGCACCUGAUCCUAGUACCTT; chemistry not given here)”, for which the “Ratio of cell-growth activation defining RNA interference effect in HL60 as 1” value in data set [1] is “(1)*”; in data set [2], “(0.60)”; in data set [3], “(0.49)”. In addition, the “Relative growth ability (%) compared with the control” value in data set [1] is 116%; in data set [2], 68.5%; in data set [3], 56.4%. For the same compound, the “Relative ratio of inhibition defining RNA interference effect in EoL1 as 1” value in the data set on Flt3 mRNA (setting [5]) is “(1)*”; in the data set on Flt3 mRNA (setting [6]) it was “(1.6)”. In addition, the “inhibition percentage (%) of the relative mRNA expression level (Flt3 mRNA/GAPDH mRNA)” value in the data set with Flt3 mRNA (EoL1 (WT-highly expressing)) was 41%; in the data set with Flt3 mRNA (HL60 (WT-low expressing)) it was 31%; with Flt3 mRNA (setting [6]), 65%. The “selective inhibition of Flt3 mRNA expression relative to the inhibition ratio in the cells without ITD mutation (WT)” value in the data set on Flt3 mRNA (cells having ITD mutation vs WT cells) is reported as at least 1.6 fold.
As to “siRNA2: siRNA to TK (kinase) region of Flt3 (target SEQ ID NO: 4); sense SEQ ID NO: 5, antisense SEQ ID NO: 6 (sense CAGGAGUCUCAAUCCAGGUTT; antisense ACCUGGAUUGAGACUCCUGTT; chemistry not given here)”, the “Ratio of cell-growth activation defining RNA interference effect in HL60 as 1” value in data set [1] is “(1)”; in data set [2], “(0.70)”; in data set [3], “(0.36)”. The “Relative growth ability (%) compared with the control” value in data set [1] is on record as 115%; in data set [2], 79.7%; in data set [3], 41.4%. Besides, the “Relative ratio of inhibition defining RNA interference effect in EoL1 as 1” value in the data set with Flt3 mRNA (setting [5]) and with Flt3 mRNA (setting [6]) was “(1)” throughout. In addition, the “inhibition percentage (%) of the relative mRNA expression level (Flt3 mRNA/GAPDH mRNA)” value in the data set with Flt3 mRNA (EoL1 (WT-highly expressing)) is recorded as 54%; with Flt3 mRNA (HL60 (WT-low expressing)), 46%; with Flt3 mRNA (setting [6]), 54%. Moreover, the “inhibition of Flt3 mRNA expression relative to the cells without using an siRNA” value in the data set on Flt3 mRNA (all cells (MV4-11, EoL1, HL60)) is reported as “around 50%”.
As for `Cc1cc2ncc(-c3ccccc3)nc2cc1C` [AG1295], the inhibition at 3 µM in data set [4] (3.0 μM) came to 59.8%. Besides, in data set [4] (5.0 μM), the inhibition at 5 µM was 84.3%.
As for “siRNA4: siRNA to BCR/ABL chimera mRNA (target SEQ ID NO: 10); sense SEQ ID NO: 11, antisense SEQ ID NO: 12; unspecific control (sense GCAGAGUUCAAAAGCCCUUTT; antisense AAGGGCUUUUGAACUCUGCTT; chemistry not given here) [reference compound]”, the “inhibition percentage (%) of the relative mRNA expression level (Flt3 mRNA/GAPDH mRNA)” value with Flt3 mRNA (EoL1 (WT-highly expressing)) was determined as 8%; in the data set with Flt3 mRNA (HL60 (WT-low expressing)) it was 7%; with Flt3 mRNA (setting [6]), 5%. Moreover, the “inhibition of Flt3 mRNA expression (in words)” value with Flt3 mRNA (siRNA irrelevant to Flt3 mRNA, sequence specificity) is on record as “did not occur”.
